Assays:
Nucleic Acid [1] = assay: Duplex stability of DNA counter strand assessed as melting temperature; assay type: nucleic-acid assay
Nucleic Acid [2] = assay: Duplex stability of RNA counter strand assessed as melting temperature; assay type: nucleic-acid assay

SMILES | Tm (Nucleic Acid [1]) [°C] | Tm (Nucleic Acid [2]) [°C]
Cc1cn([C@H]2C[C@H](OP(O)(=S)OC[C@H]3O[C@@H](n4cnc5c(N)ncnc54)[C@H](O)[C@@H]3OP(O)(=S)OC[C@H]3O[C@@H](n4ccc(N)nc4=O)[C@H](O)[C@@H]3OP(O)(=S)OC[C@H]3O[C@@H](n4ccc(N)nc4=O)[C@H](O)[C@@H]3OP(O)(=S)OC[C@H]3O[C@@H](n4cnc5c(=O)[nH]c(N)nc54)[C@H](O)[C@@H]3OP(O)(=S)OC[C@H]3O[C@@H](n4ccc(N)nc4=O)[C@H](O)[C@@H]3OP(O)(=S)OC[C@H]3O[C@@H](n4cnc5c(=O)[nH]c(N)nc54)[C@H](O)[C@@H]3OP(O)(=S)OC[C@H]3O[C@@H](n4cc(C)c(=O)[nH]c4=O)C[C@@H]3OP(O)(=S)OC[C@H]3O[C@@H](n4cnc5c(=O)[nH]c(N)nc54)[C@H](O)[C@@H]3OP(O)(=S)OC[C@H]3O[C@@H](n4ccc(N)nc4=O)[C@H](O)[C@@H]3OP(O)(=S)OC[C@H]3O[C@@H](n4cnc5c(=O)[nH]c(N)nc54)[C@H](O)[C@@H]3OP(O)(=S)OC[C@H]3O[C@@H](n4cnc5c(N)ncnc54)[C@H](O)[C@@H]3OP(O)(=S)OC[C@H]3O[C@@H](n4ccc(N)nc4=O)[C@H](O)[C@@H]3OP(O)(=S)OC[C@H]3O[C@@H](n4ccc(N)nc4=O)[C@H](O)[C@@H]3OP(O)(=S)OC[C@H]3O[C@@H](n4ccc(N)nc4=O)[C@H](O)[C@@H]3OP(O)(=S)OC[C@H]3O[C@@H](n4cc(C)c(=O)[nH]c4=O)C[C@@H]3OP(O)(=S)OC[C@H]3O[C@@H](n4ccc(N)nc4=O)[C@H](O)[C@@H]3OP(O)(=S)OC[C@H]3O[C@@H](n4ccc(=O)[nH]c4=O)[C@H](NCCCNCCCCNCCCN)[C@@H]3O)[C@@H](CO)O2)c(=O)[nH]c1=O (some centres not stated) | 74.3 | 53.2
Cc1cn([C@H]2C[C@H](OP(=O)(O)OC[C@H]3O[C@@H](n4cnc5c(N)ncnc54)[C@H](O)[C@@H]3OP(=O)(O)OC[C@H]3O[C@@H](n4ccc(N)nc4=O)[C@H](O)[C@@H]3OP(=O)(O)OC[C@H]3O[C@@H](n4ccc(N)nc4=O)[C@H](O)[C@@H]3OP(=O)(O)OC[C@H]3O[C@@H](n4cnc5c(=O)[nH]c(N)nc54)[C@H](O)[C@@H]3OP(=O)(O)OC[C@H]3O[C@@H](n4ccc(N)nc4=O)[C@H](O)[C@@H]3OP(=O)(O)OC[C@H]3O[C@@H](n4cnc5c(=O)[nH]c(N)nc54)[C@H](O)[C@@H]3OP(=O)(O)OC[C@H]3O[C@@H](n4ccc(=O)[nH]c4=O)[C@H](NCCCNCCCCNCCCN)[C@@H]3OP(=O)(O)OC[C@H]3O[C@@H](n4cnc5c(=O)[nH]c(N)nc54)[C@H](O)[C@@H]3OP(=O)(O)OC[C@H]3O[C@@H](n4ccc(N)nc4=O)[C@H](O)[C@@H]3OP(=O)(O)OC[C@H]3O[C@@H](n4cnc5c(=O)[nH]c(N)nc54)[C@H](O)[C@@H]3OP(=O)(O)OC[C@H]3O[C@@H](n4cnc5c(N)ncnc54)[C@H](O)[C@@H]3OP(=O)(O)OC[C@H]3O[C@@H](n4ccc(N)nc4=O)[C@H](O)[C@@H]3OP(=O)(O)OC[C@H]3O[C@@H](n4ccc(N)nc4=O)[C@H](O)[C@@H]3OP(=O)(O)OC[C@H]3O[C@@H](n4ccc(N)nc4=O)[C@H](O)[C@@H]3OP(=O)(O)OC[C@H]3O[C@@H](n4cc(C)c(=O)[nH]c4=O)C[C@@H]3OP(=O)(O)OC[C@H]3O[C@@H](n4ccc(N)nc4=O)[C@H](O)[C@@H]3OP(=O)(O)OC[C@H]3O[C@@H](n4ccc(=O)[nH]c4=O)[C@H](NCCCNCCCCNCCCN)[C@@H]3O)[C@@H](CO)O2)c(=O)[nH]c1=O | 74.5 | 57.8
Cc1cn([C@@H]2O[C@H](CO)CN2c2ncnc3c2ncn3[C@@H]2O[C@H](COP(=O)(O)O[C@H]3[C@@H](O)[C@H](n4cnc5c(=O)[nH]c(N)nc54)O[C@@H]3COP(=O)(O)O[C@H]3[C@@H](O)[C@H](n4ccc(N)nc4=O)O[C@@H]3COP(=O)(O)O[C@H]3[C@@H](O)[C@H](n4cnc5c(=O)[nH]c(N)nc54)O[C@@H]3COP(=O)(O)O[C@H]3C[C@H](n4cc(C)c(=O)[nH]c4=O)O[C@@H]3COP(=O)(O)O[C@H]3[C@@H](O)[C@H](n4cnc5c(=O)[nH]c(N)nc54)O[C@@H]3COP(=O)(O)O[C@H]3[C@@H](O)[C@H](n4ccc(N)nc4=O)O[C@@H]3COP(=O)(O)O[C@H]3[C@@H](O)[C@H](n4cnc5c(=O)[nH]c(N)nc54)O[C@@H]3COP(=O)(O)O[C@H]3[C@@H](O)[C@H](n4ccc(N)nc4=O)O[C@@H]3COP(=O)(O)O[C@H]3[C@@H](O)[C@H](n4ccc(N)nc4=O)O[C@@H]3COP(=O)(O)O[C@H]3[C@@H](O)[C@H](n4cnc5c(N)ncnc54)O[C@@H]3COP(=O)(O)O[C@H]3[C@@H](NCCCNCCCCNCCCN)[C@H](n4ccc(=O)[nH]c4=O)O[C@@H]3CO)[C@@H](OP(=O)(O)OC[C@H]3O[C@@H](n4ccc(N)nc4=O)[C@H](O)[C@@H]3OP(=O)(O)OC[C@H]3O[C@@H](n4ccc(N)nc4=O)[C@H](O)[C@@H]3OP(=O)(O)OC[C@H]3O[C@@H](n4ccc(N)nc4=O)[C@H](O)[C@@H]3OP(=O)(O)OC[C@H]3O[C@@H](n4cc(C)c(=O)[nH]c4=O)C[C@@H]3OP(=O)(O)OC[C@H]3O[C@@H](n4ccc(N)nc4=O)[C@H](O)[C@@H]3OP(=O)(O)OC[C@H]3O[C@@H](n4ccc(=O)[nH]c4=O)[C@H](NCCCNCCCCNCCCN)[C@@H]3O)[C@H]2O)c(=O)[nH]c1=O | 79.7 | 61.8
Cc1cn([C@H]2C[C@H](OP(O)(=S)OC[C@H]3O[C@@H](n4cnc5c(N)ncnc54)[C@H](O)[C@@H]3OP(O)(=S)OC[C@H]3O[C@@H](n4ccc(N)nc4=O)[C@H](O)[C@@H]3OP(O)(=S)OC[C@H]3O[C@@H](n4ccc(N)nc4=O)[C@H](O)[C@@H]3OP(O)(=S)OC[C@H]3O[C@@H](n4cnc5c(=O)[nH]c(N)nc54)[C@H](O)[C@@H]3OP(O)(=S)OC[C@H]3O[C@@H](n4ccc(N)nc4=O)[C@H](O)[C@@H]3OP(O)(=S)OC[C@H]3O[C@@H](n4cnc5c(=O)[nH]c(N)nc54)[C@H](O)[C@@H]3OP(O)(=S)OC[C@H]3O[C@@H](n4ccc(=O)[nH]c4=O)[C@H](NCCCNCCCCNCCCN)[C@@H]3OP(O)(=S)OC[C@H]3O[C@@H](n4cnc5c(=O)[nH]c(N)nc54)[C@H](O)[C@@H]3OP(O)(=S)OC[C@H]3O[C@@H](n4ccc(N)nc4=O)[C@H](O)[C@@H]3OP(O)(=S)OC[C@H]3O[C@@H](n4cnc5c(=O)[nH]c(N)nc54)[C@H](O)[C@@H]3OP(O)(=S)OC[C@H]3O[C@@H](n4cnc5c(N)ncnc54)[C@H](O)[C@@H]3OP(O)(=S)OC[C@H]3O[C@@H](n4ccc(N)nc4=O)[C@H](O)[C@@H]3OP(O)(=S)OC[C@H]3O[C@@H](n4ccc(N)nc4=O)[C@H](O)[C@@H]3OP(O)(=S)OC[C@H]3O[C@@H](n4ccc(N)nc4=O)[C@H](O)[C@@H]3OP(O)(=S)OC[C@H]3O[C@@H](n4cc(C)c(=O)[nH]c4=O)C[C@@H]3OP(O)(=S)OC[C@H]3O[C@@H](n4ccc(N)nc4=O)[C@H](O)[C@@H]3OP(O)(=S)OC[C@H]3O[C@@H](n4ccc(=O)[nH]c4=O)[C@H](NCCCNCCCCNCCCN)[C@@H]3O)[C@@H](CO)O2)c(=O)[nH]c1=O (some centres not stated) | 66.8 | 53
Cc1cn([C@@H]2O[C@H](COP(=O)(O)O[C@H]3[C@@H](O)[C@H](n4ccc(N)nc4=O)O[C@@H]3COP(=O)(O)O[C@H]3[C@@H](O)[C@H](n4ccc(N)nc4=O)O[C@@H]3COP(=O)(O)O[C@H]3[C@@H](O)[C@H](n4ccc(N)nc4=O)O[C@@H]3COP(=O)(O)O[C@H]3[C@@H](O)[C@H](n4cnc5c(N)ncnc54)O[C@@H]3COP(=O)(O)O[C@H]3[C@@H](O)[C@H](n4cnc5c(=O)[nH]c(N)nc54)O[C@@H]3COP(=O)(O)O[C@H]3[C@@H](O)[C@H](n4ccc(N)nc4=O)O[C@@H]3COP(=O)(O)O[C@H]3[C@@H](O)[C@H](n4cnc5c(=O)[nH]c(N)nc54)O[C@@H]3COP(=O)(O)O[C@H]3[C@@H](NCCCNCCCCNCCCN)[C@H](n4ccc(=O)[nH]c4=O)O[C@@H]3COP(=O)(O)O[C@H]3[C@@H](O)[C@H](n4cnc5c(=O)[nH]c(N)nc54)O[C@@H]3COP(=O)(O)O[C@H]3[C@@H](O)[C@H](n4ccc(N)nc4=O)O[C@@H]3COP(=O)(O)O[C@H]3[C@@H](O)[C@H](n4cnc5c(=O)[nH]c(N)nc54)O[C@@H]3COP(=O)(O)O[C@H]3[C@@H](O)[C@H](n4ccc(N)nc4=O)O[C@@H]3COP(=O)(O)O[C@H]3[C@@H](O)[C@H](n4ccc(N)nc4=O)O[C@@H]3COP(=O)(O)O[C@H]3[C@@H](O)[C@H](n4cnc5c(N)ncnc54)O[C@@H]3COP(=O)(O)O[C@H]3C[C@H](n4cc(C)c(=O)[nH]c4=O)O[C@@H]3CO)[C@@H](OP(=O)(O)OC[C@H]3O[C@@H](n4ccc(N)nc4=O)[C@H](O)[C@@H]3OP(=O)(O)OC[C@H]3O[C@@H](n4ccc(=O)[nH]c4=O)[C@H](NCCCNCCCCNCCCN)[C@@H]3O)[C@H]2NCCCNCCCCNCCCN)c(=O)[nH]c1=O | 70.6 | 45.8
Cc1cn([C@H]2C[C@H](OP(=O)(O)OC[C@H]3O[C@@H](n4cnc5c(N)ncnc54)[C@H](O)[C@@H]3OP(=O)(O)OC[C@H]3O[C@@H](n4ccc(N)nc4=O)[C@H](O)[C@@H]3OP(=O)(O)OC[C@H]3O[C@@H](n4ccc(N)nc4=O)[C@H](O)[C@@H]3OP(=O)(O)OC[C@H]3O[C@@H](n4cnc5c(=O)[nH]c(N)nc54)[C@H](O)[C@@H]3OP(=O)(O)OC[C@H]3O[C@@H](n4ccc(N)nc4=O)[C@H](O)[C@@H]3OP(=O)(O)OC[C@H]3O[C@@H](n4cnc5c(=O)[nH]c(N)nc54)[C@H](O)[C@@H]3OP(=O)(O)OC[C@H]3O[C@@H](n4cc(C)c(=O)[nH]c4=O)C[C@@H]3OP(=O)(O)OC[C@H]3O[C@@H](n4cnc5c(=O)[nH]c(N)nc54)[C@H](O)[C@@H]3OP(=O)(O)OC[C@H]3O[C@@H](n4ccc(N)nc4=O)[C@H](O)[C@@H]3OP(=O)(O)OC[C@H]3O[C@@H](n4cnc5c(=O)[nH]c(N)nc54)[C@H](O)[C@@H]3OP(=O)(O)OC[C@H]3O[C@@H](n4cnc5c(N)ncnc54)[C@H](O)[C@@H]3OP(=O)(O)OC[C@H]3O[C@@H](n4ccc(N)nc4=O)[C@H](O)[C@@H]3OP(=O)(O)OC[C@H]3O[C@@H](n4ccc(N)nc4=O)[C@H](O)[C@@H]3OP(=O)(O)OC[C@H]3O[C@@H](n4ccc(N)nc4=O)[C@H](O)[C@@H]3OP(=O)(O)OC[C@H]3O[C@@H](n4cc(C)c(=O)[nH]c4=O)C[C@@H]3OP(=O)(O)OC[C@H]3O[C@@H](n4ccc(N)nc4=O)[C@H](O)[C@@H]3OP(=O)(O)OC[C@H]3O[C@@H](n4ccc(=O)[nH]c4=O)[C@H](NCCCNCCCCNCCCN)[C@@H]3O)[C@@H](CO)O2)c(=O)[nH]c1=O | 80 | 63

Reference: ChEMBL document CHEMBL1153884, “Oligonucleotide-polyamine conjugates: influence of length and position of 2'-attached polyamines on duplex stability and antisense effect” (2009)
